Like-named read-outs stand apart in the source and are kept apart here. Values belong to the compound of their own block, whether it stands above or below them. Where a SMILES comes first, the peptide text is derived from it. [ ]: non-standard residue; d: D form. pY = N[C@@H](Cc1ccc(OP(=O)(O)O)cc1)C(=O)O; pT = C[C@@H](OP(=O)(O)O)[C@H](N)C(=O)O
Tests used:
[1] = target: T1, DUSP5pdWT (Homo sapiens, UniProt Q16690); assay: Steady state inhibition of pNPP hydrolysis by tripeptides; type: biochemical; set-up: The Dusp5 phosphatase domain gene, both wild type (WT; DUSP5pdWT; used for kinetic studies); inferred from the Nickel NTA purification), with additional N-terminal amino acids (N); made in house; settings: for Ki: peptide as inhibitor of pNPP hydrolysis
T1 sequence (Q16690 178-319 limits assumed): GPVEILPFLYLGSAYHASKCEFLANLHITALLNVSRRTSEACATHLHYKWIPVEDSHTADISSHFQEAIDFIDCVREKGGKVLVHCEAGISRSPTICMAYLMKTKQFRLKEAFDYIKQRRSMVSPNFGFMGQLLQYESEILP

[2] = target: T1, DUSP5pdWT; assay: Steady state inhibition of pNPP hydrolysis by vanadate and phosphate; settings: for inhibition pattern / Ki (Kis): pNPP substrate; for Ki (Kis): Tris pH 7.5, 0.045 mM DTT, global kinetics analysis
Method: All assays were carried out using pNPP as a substrate in the presence of DTT using a microplate reader and a total volume of 100 μL. Each assay contained an enzyme concentration of approximately 0.072 mg/mL (appropriately 3.13 μM DUSP5pdWT) which was left in a stock solution at about 1 h at 4°C before use. Each assay consisted of a reaction mixture in 100 mM tris-hydrochloride buffer containing 100 mM NaCl and 5.0 mM magnesium chloride (MgCl2) at pH 7.5. […] The kinetic parameters were measured in the presence of 0.045 mM DTT in the assay solution and the assay was started with the addition of pNPP.
For phosphate inhibition studies, the phosphate inhibitor concentrations used were 0.5; 1; 2; 5; 10 mM. […] The kinetic runs were repeated three times and the data were initial processed using excel and the global kinetics analysis was performed using GraphPad Prism 10.1.2. The errors provided in the analysis were calculated by the program.

[3] = target: T2, DUSPpdWT (Homo sapiens, UniProt Q16690); assay: 31P NMR monitoring of tripeptide hydrolysis; type: biochemical
T2 construct: The Dusp5 phosphatase domain gene, both wild type (WT; DUSP5pdWT; used for kinetic studies); inferred from the Nickel NTA purification), with additional N-terminal amino acids (N); made in house
T2 sequence (Q16690 178-319 limits assumed): T1 sequence (Q16690 178-319 limits assumed)
Method: Hydrolysis of the pThr-Glu-pTyr peptide was monitored using ^31P 1D NMR and a Varian 500 MHz spectrometer equipped with a broad band probe. 1 mM of peptide was incubated with 100 μM of DUSPpdWT protein for 3 min, and spectra were collected at 25°C. See Figure 2 and, for a time course, Supplementary Figure S3.

[4] = target: Bovine Low Molecular Weight Phosphotyrosyl Phosphatase; set-up: method as in Zhang et al. (1997); settings: Bovine heart, substrate PNPP, Sodium acetate, ref Zhang et al. (1997), cited from earlier work
[5] = target: Acid phosphatases (Bovine liver); set-up: method as in Lawrence and Van Etten (1981); settings: pH 5.5, substrate PNPP, Sodium acetate, ref Lawrence and Van Etten (1981); cited from earlier work
[6] = target: PTP1B; settings: cited from earlier work
[7] = target: Human prostatic acid phosphatase; settings: pH 5.0; substrate PNPP; Sodium acetate; ref Zhou et al. (1993); cited from earlier work
[8] = target: Phosphotyrosyl protein phosphatases; settings: pH 5.0; substrate PNPP; Sodium acetate; ref Zhou et al. (1993); cited from earlier work
[9] = target: SHP-1 (domain containing protein tyrosine phosphatase-1); settings: pH 7.5; substrate PNPP; Tris; ref Heo et al. (2002); cited from earlier work
[10] = target: PTPase; settings: substrate PNPP, ref Deng et al. (2002), cited from earlier work
[11] = target: Bacteriophage λ protein phosphatase; settings: pH 7.8; substrate PNPP; Tris; ref Reiter et al. (2001); cited from earlier work
[12] = Ki, global competitive model, Lineweaver-Burk fit (equation S2)
[13] = Ki, global competitive model, Michaelis-Menten fit (Eq. 2)

Compound: CC(=O)N[C@H](C(=O)N[C@@H](CCC(=O)O)C(=O)N[C@@H](Cc1ccc(OP(=O)(O)O)cc1)C(N)=O)[C@@H](C)O [T-E-pY] (Ac-Thr-Glu-[pY]-NH2)
Ki [1, 12]: 4.8 mM
Ki [1, 13]: 4.93 mM

Compound: O=[N+]([O-])c1ccc(OP(=O)(O)O)cc1 [pNPP, p-nitrophenol phosphate]
Km ([2]; pH 7.5): 8.02 mM

Ki ([1]; global competitive model, Lineweaver-Burk fit (equation S2), read-out: Ki): 21.9 mM
Ki ([1]; global competitive model, Michaelis-Menten fit (Eq. 2), read-out: Ki): 15.8 mM
Compound: CC(=O)N[C@H](C(=O)N[C@@H](CCC(=O)O)C(=O)N[C@@H](Cc1ccc(O)cc1)C(N)=O)[C@@H](C)OP(=O)(O)O [pT-E-Y] (Ac-[pT]-Glu-Tyr-NH2)

Compound: CC(=O)N[C@H](C(=O)N[C@@H](CCC(=O)O)C(=O)N[C@@H](Cc1ccc(OP(=O)(O)O)cc1)C(N)=O)[C@@H](C)OP(=O)(O)O [pT-E-pY, Ac-pThr-Glu-pTyr-NH2] (Ac-[pT]-Glu-[pY]-NH2)
conversion to orthophosphate (both phosphates cleaved) ([3]; 1 mM peptide, 100 μM DUSP5pdWT, 3 min, 25°C): 100%
pT and pY peptides remaining (each) ([3]; 10-fold lower enzyme concentration, even after prolonged incubation): about 25%
conversion ([3]; 10-fold lower enzyme concentration, first timepoint after 3 min incubation): about 50%
Ki [1, 12]: 1.22 mM
Ki [1, 13]: 1.67 mM
kcat ([1]; pNPP substrate, peptide as inhibitor, global competitive model, Michaelis-Menten fit (Eq. 2)): 2.03 ± 0.07 × 10^−2 s^−1
fold more potent binder ([1]; relative to the pY monophosphorylated peptide): roughly 3 x

inhibition pattern [2]: competitive inhibitors
Ki (Kis) ([2]; listed as Phosphate): 17.3 mM
Ki (Kis) ([2]; listed as sodium phosphate): 17.32 mM
inhibition pattern ([2]; listed as Phosphate): competitive inhibition pattern
Compound: O=P(O)(O)O [phosphate, sodium phosphate]
Ki ([4]; pH 5.0): 2.2 ± 0.0004 mM
Ki ([4]; pH 7.5): 6.2 mM
Ki [5]: 3 mM
Ki ([6]; pH 7.0, substrate PNPP, 3,3-Dimethylglutarate, ref Zhang, Y.L. and Zhang, Z.Y. (1998)): 17 mM

Compound: sodium vanadate
Ki ([4]; pH 5.0): 0.0054 mM
Ki ([4]; pH 7.5): 0.001 mM
Ki [5]: 2 mM
Ki ([6]; pH 5.5, substrate PNPP, Tris, ref Heo et al. (2002)): 0.41 mM
Ki ([6]; pH 7.3, substrate FDP, HEPES, ref Huyer et al. (1997)): 0.00038 mM
Ki ([6]; pH 7.5, substrate PNPP, Tris, ref Heo et al. (2002)): 0.0056 mM
Ki [7]: 0.036 mM
Ki [8]: 0.024 mM
Ki [9]: 0.0093 mM
Ki ([10]; pH 5.5, Acetate): 0.0011 mM
Ki ([10]; pH 7.5, Tris): 0.0012 mM
Ki [11]: 0.0007 mM
inhibition pattern [2]: competitive inhibitors

From article PMC11694514, “Structural and kinetic characterization of DUSP5 with a Di-phosphorylated tripeptide substrate from the ERK activation loop” (Frontiers in chemical biology, 2024)
